± gives the standard deviation of the averaged measurements.
Tests used:
Details in all cases: treatment time: 3 days
[1] = tested on: UT-SCC-24A; assay: drug sensitivity score (DSS); higher = more sensitive
Experimental: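 HNSCC cell lines (500 cells/well, 384-well) were cultured on plastic, on top of (2D) or embedded (3D) in Matrigel or human leiomyoma matrix Myogel (500 ug/mL; Myogel 3D mixed with rat collagen I). Cells were treated for 3 days with 5 ten-fold concentrations of each drug, and viability was read by CellTiter-Glo. Suffixes _1/_2/_3 on drug names are replicates.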

[2] = tested on: UT-SCC-106A; assay: maximal % inhibition of viability relative to DMSO; higher = stronger effect
In short: (§1)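 Three growth formats were used for HPV-negative HNSCC cell lines in 384-well plates at 500 cells/well: bare plastic, wells coated with Matrigel or Myogel (500 µg/mL), and embedding in Matrigel or Myogel plus rat collagen I. Compounds were added at five 10-fold concentrations, and after 3 days CellTiter-Glo 2.0 luminescence was recorded and normalised to vehicle (0.1% DMSO) and cell-killing control wells. IC50, maximal inhibition and drug sensitivity score came from percent-inhibition dose–response fitting in the FIMM pipeline.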

[3] = tested on: UT-SCC-14; assay: as above
In short: as §1

[4] = tested on: UT-SCC-28; assay: as above
In short: as §1

[5] = tested on: UT-SCC-24A; assay: maximal % inhibition of viability relative to DMSO; higher = stronger effect
Experimental: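 HNSCC cell lines (500 cells/well, 384-well) were cultured on plastic, on top of (2D) or embedded (3D) in Matrigel or human leiomyoma matrix Myogel (500 ug/mL; Myogel 3D mixed with rat collagen I). Cells were treated for 3 days with 5 ten-fold concentrations of each drug, and viability was read by CellTiter-Glo. Viability was normalised to DMSO (0% inhibition) and 100 uM benzethonium chloride (100% inhibition) controls and fitted with the FIMM DSRT pipeline to give IC50 (nM), maximal % inhibition and the drug sensitivity score (DSS). Suffixes _1/_2/_3 on drug names are replicates.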

[6] = tested on: UT-SCC-106A; assay: drug sensitivity score (DSS); higher = more sensitive; extreme values may be limits of the assay
In short: as §1

[7] = tested on: UT-SCC-14; assay: as above
In short: as §1

[8] = tested on: UT-SCC-24B; assay: as above
In short: as §1

[9] = tested on: UT-SCC-28; assay: as above
In short: as §1

[10] = tested on: UT-SCC-40; assay: as above
In short: as §1

[11] = tested on: UT-SCC-42A; assay: as above
In short: as §1

[12] = tested on: UT-SCC-42B; assay: as above
In short: as §1

[13] = tested on: UT-SCC-44; assay: as above
In short: as §1

[14] = tested on: UT-SCC-73; assay: as above
In short: as §1

[15] = tested on: UT-SCC-81; assay: as above
In short: as §1

[16] = tested on: UT-SCC-8; assay: as above
In short: as §1

[17] = culture condition: embedded in Matrigel
[18] = culture condition: embedded in Myogel + collagen I
[19] = culture condition: on top of Matrigel
[20] = culture condition: on top of Myogel
[21] = culture condition: plastic 2D (no matrix)

## CN(C)C/C=C/C(=O)Nc1cc2c(Nc3ccc(F)c(Cl)c3)ncnc2cc1O[C@H]1CCOC1 [Afatinib]
[1]; [17]
  drug sensitivity score: 20.6 ± 3.3 DSS
[1]; [18]
  drug sensitivity score: 8.9 ± 5.3 DSS
[1]; [19]
  drug sensitivity score: 16.6 ± 2.1 DSS
[1]; [20]
  drug sensitivity score: 2.93 ± 2.1 DSS
[1]; [21]
  drug sensitivity score: 15.6 ± 3.1 DSS
[2]; [17]
  maximal % inhibition of viability: 43.3 ± 3.5%
[2]; [18]
  maximal % inhibition of viability: 7.93 ± 2.1%
[2]; [19]
  maximal % inhibition of viability: 56.6 ± 1.3%
[2]; [20]
  maximal % inhibition of viability: 8.37 ± 4.6%
[2]; [21]
  maximal % inhibition of viability: 60.4 ± 4.3%
[3]; [17]
  maximal % inhibition of viability: 74.9 ± 5.2%
[3]; [18]
  maximal % inhibition of viability: 44.3 ± 12%
[3]; [19]
  maximal % inhibition of viability: 74.6 ± 7.7%
[3]; [20]
  maximal % inhibition of viability: 47.3 ± 16%
[3]; [21]
  maximal % inhibition of viability: 71.4 ± 10%
[4]; [17]
  maximal % inhibition of viability: 3.87 ± 5.3%
[4]; [18]
  maximal % inhibition of viability: 14.7 ± 6.2%
[4]; [19]
  maximal % inhibition of viability: 12 ± 4%
[4]; [21]
  maximal % inhibition of viability: 8.87 ± 2.8%
[5]; [17]
  maximal % inhibition of viability: 79.9 ± 1.1%
[5]; [18]
  maximal % inhibition of viability: 38.8 ± 2.3%
[5]; [19]
  maximal % inhibition of viability: 68.23 ± 0.59%
[5]; [20]
  maximal % inhibition of viability: 20.3 ± 3.7%
[5]; [21]
  maximal % inhibition of viability: 67.1 ± 4%
[6]; [17]
  drug sensitivity score: 10.9 ± 1.4 DSS
[6]; [18]
  drug sensitivity score: 0 DSS
[6]; [19]
  drug sensitivity score: 13.7 ± 2.2 DSS
[6]; [20]
  drug sensitivity score: 0.133 ± 0.23 DSS
[6]; [21]
  drug sensitivity score: 13.7 ± 1.7 DSS
[7]; [17]
  drug sensitivity score: 13.8 ± 3 DSS
[7]; [18]
  drug sensitivity score: 9.3 ± 6.4 DSS
[7]; [19]
  drug sensitivity score: 12.5 ± 1.4 DSS
[7]; [20]
  drug sensitivity score: 7.33 ± 3.8 DSS
[7]; [21]
  drug sensitivity score: 12.1 ± 4.1 DSS
[8]; [17]
  drug sensitivity score: 11.4 ± 0.72 DSS
[8]; [18]
  drug sensitivity score: 4.57 ± 0.58 DSS
[8]; [19]
  drug sensitivity score: 10.9 ± 0.96 DSS
[8]; [20]
  drug sensitivity score: 2.3 ± 0.7 DSS
[8]; [21]
  drug sensitivity score: 16.1 ± 0.56 DSS
[9]; [17]
  drug sensitivity score: 0 DSS
[9]; [18]
  drug sensitivity score: 0 DSS
[9]; [19]
  drug sensitivity score: 0.233 ± 0.32 DSS
[9]; [21]
  drug sensitivity score: 0 DSS
[10]; [17]
  drug sensitivity score: 16 ± 1.1 DSS
[10]; [18]
  drug sensitivity score: 2.93 ± 3.1 DSS
[10]; [19]
  drug sensitivity score: 14.5 ± 1.1 DSS
[10]; [20]
  drug sensitivity score: 3.37 ± 1.5 DSS
[10]; [21]
  drug sensitivity score: 10.2 ± 1.3 DSS
[11]; [17]
  drug sensitivity score: 9.73 ± 3.1 DSS
[11]; [18]
  drug sensitivity score: 0.767 ± 1.3 DSS
[11]; [19]
  drug sensitivity score: 12.7 ± 1.4 DSS
[11]; [20]
  drug sensitivity score: 4.33 ± 1.3 DSS
[11]; [21]
  drug sensitivity score: 10.3 ± 2.3 DSS
[12]; [17]
  drug sensitivity score: 15.7 ± 1.7 DSS
[12]; [19]
  drug sensitivity score: 11.6 ± 1.6 DSS
[12]; [20]
  drug sensitivity score: 0 DSS
[12]; [21]
  drug sensitivity score: 6.6 ± 0.72 DSS
[13]; [17]
  drug sensitivity score: 0.233 ± 0.4 DSS
[13]; [18]
  drug sensitivity score: 0 DSS
[13]; [19]
  drug sensitivity score: 0 DSS
[13]; [20]
  drug sensitivity score: 0 DSS
[13]; [21]
  drug sensitivity score: 0 DSS
[14]; [17]
  drug sensitivity score: 2.43 ± 1.8 DSS
[14]; [18]
  drug sensitivity score: 3.1 ± 5.4 DSS
[14]; [19]
  drug sensitivity score: 0 DSS
[14]; [20]
  drug sensitivity score: 0.433 ± 0.75 DSS
[14]; [21]
  drug sensitivity score: 1.47 ± 1.2 DSS
[15]; [17]
  drug sensitivity score: 23 ± 2.7 DSS
[15]; [18]
  drug sensitivity score: 6.47 ± 11 DSS
[15]; [19]
  drug sensitivity score: 18.5 ± 2.3 DSS
[15]; [20]
  drug sensitivity score: 1.6 ± 0.66 DSS
[15]; [21]
  drug sensitivity score: 12.5 ± 1.2 DSS
[16]; [17]
  drug sensitivity score: 19.8 ± 0.42 DSS
[16]; [18]
  drug sensitivity score: 0.333 ± 0.58 DSS
[16]; [19]
  drug sensitivity score: 19 ± 0.44 DSS
[16]; [20]
  drug sensitivity score: 8.37 ± 4.4 DSS
[16]; [21]
  drug sensitivity score: 18 ± 1.5 DSS

## Cc1c(CN2CCN(C(=O)[C@H](C)O)CC2)sc2c(N3CCOCC3)nc(-c3cnc(N)nc3)nc12 [Apitolisib]
[1]; [17]
  drug sensitivity score: 12.5 ± 2.4 DSS
[1]; [18]
  drug sensitivity score: 13.1 ± 1.9 DSS
[1]; [19]
  drug sensitivity score: 13 ± 0.85 DSS
[1]; [20]
  drug sensitivity score: 9.97 ± 0.15 DSS
[1]; [21]
  drug sensitivity score: 13.5 ± 1.6 DSS
[2]; [17]
  maximal % inhibition of viability: 69.8 ± 1.9%
[2]; [18]
  maximal % inhibition of viability: 60.4 ± 6.1%
[2]; [19]
  maximal % inhibition of viability: 74.7 ± 0.85%
[2]; [20]
  maximal % inhibition of viability: 66 ± 4%
[2]; [21]
  maximal % inhibition of viability: 81.2 ± 5%
[3]; [17]
  maximal % inhibition of viability: 84.33 ± 0.67%
[3]; [18]
  maximal % inhibition of viability: 80.8 ± 3%
[3]; [19]
  maximal % inhibition of viability: 85.5 ± 3.3%
[3]; [20]
  maximal % inhibition of viability: 79.4 ± 0.92%
[3]; [21]
  maximal % inhibition of viability: 82.1 ± 3.8%
[4]; [17]
  maximal % inhibition of viability: 63.5 ± 2.3%
[4]; [18]
  maximal % inhibition of viability: 76.8 ± 4.2%
[4]; [19]
  maximal % inhibition of viability: 69.97 ± 0.67%
[4]; [21]
  maximal % inhibition of viability: 68.4 ± 2.8%
[5]; [17]
  maximal % inhibition of viability: 90.3 ± 1.6%
[5]; [18]
  maximal % inhibition of viability: 85.4 ± 2.3%
[5]; [19]
  maximal % inhibition of viability: 87.7 ± 0.2%
[5]; [20]
  maximal % inhibition of viability: 83.4 ± 1.9%
[5]; [21]
  maximal % inhibition of viability: 88.57 ± 0.29%
[6]; [17]
  drug sensitivity score: 11.7 ± 0.66 DSS
[6]; [18]
  drug sensitivity score: 6.97 ± 1 DSS
[6]; [19]
  drug sensitivity score: 10.8 ± 0.35 DSS
[6]; [20]
  drug sensitivity score: 6.23 ± 0.6 DSS
[6]; [21]
  drug sensitivity score: 9.27 ± 1 DSS
[7]; [17]
  drug sensitivity score: 8.77 ± 1.1 DSS
[7]; [18]
  drug sensitivity score: 6.9 ± 1.9 DSS
[7]; [19]
  drug sensitivity score: 7.97 ± 1.6 DSS
[7]; [20]
  drug sensitivity score: 6.43 ± 1.1 DSS
[7]; [21]
  drug sensitivity score: 6.47 ± 1.7 DSS
[8]; [17]
  drug sensitivity score: 10.8 ± 1.8 DSS
[8]; [18]
  drug sensitivity score: 11.8 ± 1.1 DSS
[8]; [19]
  drug sensitivity score: 10.6 ± 0.76 DSS
[8]; [20]
  drug sensitivity score: 9.6 ± 0.2 DSS
[8]; [21]
  drug sensitivity score: 11.1 ± 1 DSS
[9]; [17]
  drug sensitivity score: 10.4 ± 1.3 DSS
[9]; [18]
  drug sensitivity score: 9 ± 2 DSS
[9]; [19]
  drug sensitivity score: 12.4 ± 1.5 DSS
[9]; [21]
  drug sensitivity score: 10.8 ± 0.51 DSS
[10]; [17]
  drug sensitivity score: 9.4 ± 0.27 DSS
[10]; [18]
  drug sensitivity score: 7.23 ± 0.25 DSS
[10]; [19]
  drug sensitivity score: 8.07 ± 0.49 DSS
[10]; [20]
  drug sensitivity score: 5.3 ± 1.7 DSS
[10]; [21]
  drug sensitivity score: 6.33 ± 1.2 DSS
[11]; [17]
  drug sensitivity score: 7.43 ± 0.45 DSS
[11]; [18]
  drug sensitivity score: 8.1 ± 1.3 DSS
[11]; [19]
  drug sensitivity score: 8.03 ± 1.3 DSS
[11]; [20]
  drug sensitivity score: 7.07 ± 0.4 DSS
[11]; [21]
  drug sensitivity score: 8.8 ± 1.1 DSS
[12]; [17]
  drug sensitivity score: 7.13 ± 2.4 DSS
[12]; [19]
  drug sensitivity score: 5.47 ± 0.81 DSS
[12]; [20]
  drug sensitivity score: 4.4 ± 1 DSS
[12]; [21]
  drug sensitivity score: 4.43 ± 0.93 DSS
[13]; [17]
  drug sensitivity score: 9.77 ± 0.86 DSS
[13]; [18]
  drug sensitivity score: 6.17 ± 1.4 DSS
[13]; [19]
  drug sensitivity score: 8.4 ± 0.1 DSS
[13]; [20]
  drug sensitivity score: 8.03 ± 2.9 DSS
[13]; [21]
  drug sensitivity score: 6.67 ± 0.55 DSS
[14]; [17]
  drug sensitivity score: 9 ± 1.2 DSS
[14]; [18]
  drug sensitivity score: 8.2 ± 1.4 DSS
[14]; [19]
  drug sensitivity score: 7.8 ± 0.36 DSS
[14]; [20]
  drug sensitivity score: 7.37 ± 0.15 DSS
[14]; [21]
  drug sensitivity score: 7.23 ± 1.2 DSS
[15]; [17]
  drug sensitivity score: 14.9 ± 3 DSS
[15]; [18]
  drug sensitivity score: 10.4 ± 0.81 DSS
[15]; [19]
  drug sensitivity score: 8.87 ± 0.71 DSS
[15]; [20]
  drug sensitivity score: 8.53 ± 1.1 DSS
[15]; [21]
  drug sensitivity score: 8.8 ± 1.8 DSS
[16]; [17]
  drug sensitivity score: 9.63 ± 0.38 DSS
[16]; [18]
  drug sensitivity score: 6.2 ± 2.1 DSS
[16]; [19]
  drug sensitivity score: 9.23 ± 0.51 DSS
[16]; [20]
  drug sensitivity score: 9.13 ± 1 DSS
[16]; [21]
  drug sensitivity score: 9.17 ± 0.32 DSS

Reference: the supplement of paper PMC7017272
